The target of assay [1] is Kappa-type opioid receptor (Cavia porcellus, UniProt P41144). Kind of assay: Displacement of [3H]U-69,593 from kappa opioid receptor in guinea pig cerebellum membranes. It is filed as cell membranes, Membrane.
Assay [2] is described as follows: Selectivity ratio of Ki for mu opioid receptor in mouse whole brain membranes without cerebellum to Ki for kappa opioid receptor in guinea pig cerebellum membranes. It is filed as cell membranes.
In assay [3] the target is Delta-type opioid receptor (Mus musculus, UniProt P32300). Kind of assay: Displacement of [3H]DPDPE from delta opioid receptor in mouse whole brain membranes without cerebellum. In kind it is cell membranes, Membrane. In general terms: Displacement assays read how much labelled ligand stays bound in the presence of the test substance.
Delta-type opioid receptor, sequence (P32300 whole entry): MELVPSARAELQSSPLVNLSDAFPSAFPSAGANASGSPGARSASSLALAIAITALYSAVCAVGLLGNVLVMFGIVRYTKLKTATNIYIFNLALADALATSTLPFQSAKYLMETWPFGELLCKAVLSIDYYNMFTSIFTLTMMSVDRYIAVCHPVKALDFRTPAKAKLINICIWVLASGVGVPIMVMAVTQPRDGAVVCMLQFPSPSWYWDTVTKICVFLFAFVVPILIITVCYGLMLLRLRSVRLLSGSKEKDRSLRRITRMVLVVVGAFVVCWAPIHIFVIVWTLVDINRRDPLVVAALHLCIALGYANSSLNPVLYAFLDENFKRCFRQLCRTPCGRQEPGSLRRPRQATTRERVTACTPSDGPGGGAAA
Assay [4] is described as follows: Selectivity ratio of Ki for delta opioid receptor in mouse whole brain membranes without cerebellum to Ki for kappa opioid receptor in guinea pig cerebellum membranes. It is filed as cell membranes.
The next assay concerns the target Mu-type opioid receptor (Mus musculus, UniProt P42866). Kind of assay: Displacement of [3H]DAMGO from mu opioid receptor in mouse whole brain membranes without cerebellum. In kind it is cell membranes, Membrane.

Mu-type opioid receptor, sequence (P42866 whole entry): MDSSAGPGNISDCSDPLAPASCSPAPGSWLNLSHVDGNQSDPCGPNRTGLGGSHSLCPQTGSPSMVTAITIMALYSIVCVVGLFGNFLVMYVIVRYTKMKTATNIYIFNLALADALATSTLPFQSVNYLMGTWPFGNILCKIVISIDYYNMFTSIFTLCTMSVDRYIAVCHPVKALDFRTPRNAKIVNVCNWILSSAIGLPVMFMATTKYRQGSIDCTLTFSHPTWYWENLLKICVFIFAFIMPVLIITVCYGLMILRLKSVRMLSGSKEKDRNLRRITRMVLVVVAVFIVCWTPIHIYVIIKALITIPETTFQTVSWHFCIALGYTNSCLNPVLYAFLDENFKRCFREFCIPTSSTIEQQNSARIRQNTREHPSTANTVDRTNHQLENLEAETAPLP
Kappa-type opioid receptor, sequence (P41144 whole entry): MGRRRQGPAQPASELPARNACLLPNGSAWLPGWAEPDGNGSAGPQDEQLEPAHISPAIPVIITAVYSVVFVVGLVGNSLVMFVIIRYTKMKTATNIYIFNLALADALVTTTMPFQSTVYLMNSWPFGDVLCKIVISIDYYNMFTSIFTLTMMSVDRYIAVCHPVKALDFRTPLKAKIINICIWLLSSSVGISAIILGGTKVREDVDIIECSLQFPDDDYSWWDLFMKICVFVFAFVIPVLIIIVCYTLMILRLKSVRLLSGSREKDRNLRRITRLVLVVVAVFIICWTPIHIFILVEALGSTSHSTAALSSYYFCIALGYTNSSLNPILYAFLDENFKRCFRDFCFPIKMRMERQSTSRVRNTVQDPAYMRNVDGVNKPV

Turning to `CN(C(=O)/C=C/c1ccoc1)[C@H]1CC[C@@]2(O)[C@H]3CC4=C(C[C@H](O)CC4)[C@@]2(CCN3CC2CC2)C1`, the Ki came out at 1.1 nM in assay [1], 8.45 nM in assay [3] and 5.26 nM at Mu-type opioid receptor. In addition, the Ratio Ki was 4.8 in assay [2] and 7.7 in assay [4].

For `CN(C(=O)/C=C/c1ccoc1)[C@@H]1CC[C@@]2(O)[C@H]3Cc4ccccc4[C@@]2(CCN3CC2CC2)C1`, the Ki came to 0.34 nM in assay [1], 32.4 nM in assay [3] and 12.3 nM at Mu-type opioid receptor. Besides, the values for the Ratio Ki in assay [2] and in assay [4] were 36 and 95, respectively.

Turning to `CN(C(=O)/C=C/c1ccoc1)[C@H]1CC[C@@]2(O)[C@H]3CC4=C(CC(=O)CC4)[C@@]2(CCN3CC2CC2)C1`, the Ki was determined as 2.23 nM in assay [1], 44.5 nM in assay [3] and 26 nM at Mu-type opioid receptor. Also, the Ratio Ki amounted to 12 in assay [2] and 20 in assay [4].

In the case of `CN(C(=O)/C=C/c1ccoc1)[C@H]1CC[C@@]2(O)[C@H]3Cc4ccc(O)cc4[C@@]2(CCN3CC2CC2)C1`, the values for the Ki (in assay [1]; in assay [3]; at Mu-type opioid receptor) were 0.163 nM, 0.623 nM and 0.324 nM, respectively. Moreover, the results for the Ratio Ki in assay [2] and in assay [4] were 2 and 3.8, respectively.

Turning to `CN(C(=O)/C=C/c1ccoc1)[C@H]1CC[C@H]2[C@H]3CC4=C(CCCC4)[C@@]2(CCN3CC2CC2)C1`, the Ki is 2.28 nM in assay [1], 32.9 nM in assay [3] and 8.62 nM at Mu-type opioid receptor. For the same compound, the Ratio Ki came to 3.8 in assay [2] and 14 in assay [4].

On to `CN(C(=O)/C=C/c1ccoc1)[C@H]1CC[C@@]2(O)[C@H]3CC4=C(C[C@@H](O)CC4)[C@@]2(CCN3CC2CC2)C1`, for which the figures for the Ki (in assay [1]; in assay [3]; at Mu-type opioid receptor) were 0.451 nM, 8.66 nM and 5.49 nM, respectively. For the same compound, the figures for the Ratio Ki in assay [2] and in assay [4] were 12 and 19, respectively.

For `CN(C(=O)/C=C/c1ccoc1)[C@H]1CC[C@@]2(O)[C@H]3Cc4cccc5c4[C@@]2(CCN3CC2CC2)[C@H]1O5`, the Ki in assay [1] was found to be 0.34 nM; in assay [3] it was 49.5 nM; on Mu-type opioid receptor, 8.88 nM. For the same compound, the Ratio Ki in assay [2] came out at 26; in assay [4], 146.

With `CN(C(=O)/C=C/c1ccoc1)[C@@H]1CC[C@@]2(O)[C@H]3CC4=C(C[C@H](O)CC4)[C@@]2(CCN3CC2CC2)C1`, the Ki in assay [1] was determined as 0.733 nM; in assay [3], 47.5 nM; at Mu-type opioid receptor, 57.6 nM. Further, the Ratio Ki in assay [2] is 79; in assay [4], 65.

Consider `CN(C(=O)/C=C/c1ccoc1)[C@H]1CC[C@@]2(O)[C@H]3Cc4ccccc4[C@@]2(CCN3CC2CC2)C1`, for which the results for the Ki (in assay [1]; in assay [3]; on Mu-type opioid receptor) were 0.303 nM, 5.65 nM and 6.52 nM, respectively. For the same compound, the Ratio Ki came out at 22 in assay [2] and 19 in assay [4].

For the compound `CN(C(=O)/C=C/c1ccoc1)[C@@H]1CC[C@@]2(O)[C@H]3CC4=C(C[C@@H](O)CC4)[C@@]2(CCN3CC2CC2)C1`, the Ki was 0.711 nM in assay [1], 233 nM in assay [3] and 34.7 nM at Mu-type opioid receptor. The results for the Ratio Ki in assay [2] and in assay [4] were 49 and 328, respectively.

As to `CN(C(=O)/C=C/c1ccoc1)[C@H]1CC[C@@]2(O)[C@H]3CC4=C(CCCC4)[C@@]2(CCN3CC2CC2)C1`, the Ki in assay [1] was found to be 2.06 nM; in assay [3], 26.4 nM; at Mu-type opioid receptor, 147 nM. Further, the Ratio Ki in assay [2] worked out at 71; in assay [4], 13.

Consider `CN(C(=O)/C=C/c1ccoc1)[C@@H]1CC[C@@]2(O)[C@H]3CC4=C(CC(=O)CC4)[C@@]2(CCN3CC2CC2)C1`, for which the figures for the inhibition constant Ki (in assay [1]; in assay [3]; at Mu-type opioid receptor) were 14.5 nM, 74.2 nM and 51.1 nM, respectively. Also, the Ratio Ki came to 3.5 in assay [2] and 5.1 in assay [4].

One may read the Ki as the dissociation constant of the complex between target and ligand, obtained from inhibition or displacement. Read a high Ki as weaker binding.

The record behind these values is ChEMBL document CHEMBL2202959, “Essential structure of opioid κ receptor agonist nalfurafine for binding to the κ receptor 3: synthesis of decahydro(iminoethano)phenanthrene derivatives with an oxygen functionality at the 3-position and their pharmacologies” (Bioorg Med Chem Lett, 2012).
